In one data set the test system is PEO1 cells. The data set can be described thus: MTS cytotoxicity assay, sensitization to olaparib, PEO1. The class given is cell-based. Particulars: 30 μM, olaparib 72 hr. How it is done: (§1) Cells were pre-treated with 30 μM DB4 for 1 hr and then treated with various concentrations of olaparib for 72 hr. Cell survival was determined by MTS cytotoxicity assay. Data are means±SD (N=3-4). […] EOB calculation was used to quantify the synergy of the combination of DB4 and various concentrations of olaparib in PEO1 or PEO4 cells as shown in FIG. 8A. EOB>0, synergism; EOB=0, additivity; EOB<0, antagonism. […] Cells were pre-treated with 30 μM DB4-F for 1 hr and then treated with various concentrations of olaparib for 72 hr. Cell survival was determined by MTS cytotoxicity assay. Data are means±SD (N=3-4). […] EOB calculation was used to quantify the synergy of the combination of DB4-F and various concentrations of olaparib in PEO1 or PEO4 cells as shown in FIG. 8B. EOB>0, synergism; EOB=0, additivity; EOB<0, antagonism. […] Cell survival was determined by MTS cytotoxicity assay. […] Caspase 3/7 activity was expressed as RLU per μg/μl protein. […] Caspase 3/7 activity was expressed as RLU per μg/μl protein. […] Cells were treated and caspase 3/7 activity was measured as described in FIG. 8G and FIG. 8H.
(§2) It was also examined whether DB4 sensitized BRCA-wild type EOC cells to a PARP inhibitor. BRCA2-mutated PEO1 and BRCA2-wild type PEO4 cells were treated with DB4 at 30 μM in combination with various concentrations of olaparib and cell survival was determined. […]
(In general: Tetrazolium dyes change colour on reduction, which living cells bring about.)

The next data set concerns PEO4 cells. The data set can be described thus: MTS cytotoxicity assay, sensitization to olaparib, PEO4. The class given is cell-based. Particulars: 30 μM, olaparib 72 hr. How it is done:
as §1, §2

The subject of another data set is Hs 832(C).T cells. The data set can be described thus: Caspase 3/7 assay, Hs 832(C).T. It is filed as cell-based. Particulars: benign ovarian cyst fibroblast cells Hs 832(C).T. As for the experimental part:
as §1, with “8B.” for “8B. EOB>0, synergism; EOB=0, additivity; EOB<0, antagonism.”
Furthermore, the effects of DB4 on olaparib-induced apoptosis at 24 hr were evaluated. […]
The assay was performed as described previously (Lin Z P et al., 2018, PLOS One, 13:e0207399). […] Total protein concentration of cell lysates was determined as described above. Caspase 3/7 activity was expressed as luminescence units (RLU) per μg/μL protein for each sample.

The next data set relates to PEO1-OR cells. The data set can be described thus: MTS cytotoxicity assay, sensitization to olaparib, PEO1-OR. The class given is cell-based.
The conditions of data set [1]: cited from earlier work.
In data set [2] the target is T1, ribonucleotide reductase (RNR) (Homo sapiens, UniProt P31350).
T1 sequence (P31350 1-389): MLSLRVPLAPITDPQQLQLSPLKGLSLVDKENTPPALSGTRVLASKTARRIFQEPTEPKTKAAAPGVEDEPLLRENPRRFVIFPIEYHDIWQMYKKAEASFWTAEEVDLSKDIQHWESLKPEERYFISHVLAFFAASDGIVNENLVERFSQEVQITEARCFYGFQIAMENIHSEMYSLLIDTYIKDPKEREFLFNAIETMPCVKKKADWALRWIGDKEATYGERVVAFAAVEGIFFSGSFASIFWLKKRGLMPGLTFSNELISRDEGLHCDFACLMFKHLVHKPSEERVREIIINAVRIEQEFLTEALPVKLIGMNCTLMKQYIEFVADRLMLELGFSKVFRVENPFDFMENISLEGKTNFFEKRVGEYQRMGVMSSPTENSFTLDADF
Particulars: fold more potent than hydroxyurea; cited from earlier work.

The next data set relates to DNA synthesis. Particulars: cited from earlier work.
For data set [3] the following is noted: cited from earlier work. The source holds these as a separate data set.

For the molecule `C=CCn1c(SCc2cccc(Cl)c2)nnc1C1CCN(Cc2nc3ccccc3s2)CC1` [DB4, 2-[(4-{4-allyl-5-[(3-chlorobenzyl)thio]-4H-1,2,4-triazol-3-yl}-1-piperidinyl)methyl]-1,3-benzothiazole], the “sensitization to olaparib (cell survival)” value with PEO1 cells is “minimal effects”; with PEO4 cells it was “effectively sensitized”; in the data set with PEO1-OR cells (DB4 at 5 μM) it was “partially sensitized”; in the data set with PEO1-OR cells (DB4 at 20 μM), “near-fully sensitized”. The “effect on apoptotic effects of olaparib (caspase 3/7)” value with Hs 832(C).T cells is given as “did not enhance the apoptotic effects of olaparib”.

On to `NC(=S)NN=Cc1ncccc1N` [triapine, 3-aminopyridine-2-carboxaldehyde-thiosemicarbazone, reference compound], for which the side effects result in data set [1] (patients) was “methemoglobinemia and dyspnea”. Moreover, the clinical response rates result in data set [1] (phase I/II studies) is recorded as “more than 80%”. The “potency relative to the RNR inhibitor hydroxyurea” value in data set [2] is listed as 1,000 times. Moreover, the “time to halt DNA synthesis” value with DNA synthesis was not above 1 h. Further, the half-life in plasma entry in data set [3] is on record as “about 2 hr”.

These data come from patent US20240239786A1, “COMPOSITIONS AND METHODS FOR THE TREATMENT AND PREVENTION OF CANCER” (Yale University, priority 2021, published 2024).
